Results as given in publication PMC6142817, “New Urea Derivatives Are Effective Anti-senescence Compounds Acting Most Likely via a Cytokinin-Independent Mechanism” (Frontiers in Plant Science, 2018).
Like-named read-outs stand apart in the source and are kept apart here.

How the values were obtained:
[1] = tested on: detached Arabidopsis leaves (chlorophyll loss in the dark); assay: Arabidopsis leaf senescence assay; format: cell-based, Arabidopsis thaliana; conditions: for % of the chlorophyll retained: 0.01 μM; for % of the chlorophyll retained / % more of chlorophyll retained than DMSO (negative control): 12 days in the dark; for % more of chlorophyll retained than DMSO (negative control): 1 μM; for times more effective than BA in Arabidopsis leaf senescence assay: compared to the activity of BA in 1 μM
From the text: Amaranthus assay evaluates the induction of betacyanin synthesis in Amaranthus (Amaranthus caudatus var. atropurpurea) cotyledons, which is induced by cytokinins (Bamberger and Mayer, [1960]). The WLSA evaluates the ability of compounds to retard chlorophyll degradation in excised wheat leaves that are kept in the dark. The wheat leaf segments (Triticum aestivum cv. Hereward) were used in all other experiments requiring wheat. Arabidopsis (Arabidopsis thaliana) leaf senescence assay was performed with detached leaves from 30-day-old plants, which were grown in soil in phytotron under standard conditions (Rivero et al., [2014]). Four leaves of a combined weight of 60 mg were placed in a six-well plate and stored in the dark for 12 days at 22°C. The leaves (except the fresh control leaves) floated on water solutions of tested compounds. Fresh control leaves were leaves detached from a plant and immediately used for chlorophyll determination. The duration of the senescence assay of Arabidopsis leaves was prolonged to highlight the difference in chlorophyll content between a negative control and treatments. Arabidopsis leaves were losing chlorophyll more slowly than wheat leaves. Chlorophyll extraction and spectrophotometric determination of its content was done according to Holub et al. ([1998]).

[2] = tested on: cytokinin-dependent tobacco callus; assay: Tobacco callus bioassay; format: cell-based; conditions: for EC50: Nicotiana tabacum
Method: Tobacco callus, Amaranthus and Wheat leaf senescence assay (WLSA) were performed as described by Holub et al. ([1998]) including the number of repetitions in each assay. An exception to the published protocols was that the tobacco callus assay was performed in 6-well microtiter plates (with each well containing 3 ml of Murashige Skoog medium into which 0.1 g of callus was added). Each compound was tested at least twice in each assay and in a wider concentration range to obtain concentration-dependent activity curves. IC50 means compound concentration at which chlorophyll degradation is inhibited by 50% and EC50 means half the maximal effective concentration.

AHK3 = biological target: T1, AHK3 (Arabidopsis thaliana, UniProt Q9C5U1); assay: Cytokinin receptor activation assay in E. coli (AHK3); format: cell-based
T1 construct: expressed in transfected cells; host or cells: Escherichia coli strain KMI001, plasmid pSTV28-AHK3
T1 sequence (Q9C5U1 1-1036): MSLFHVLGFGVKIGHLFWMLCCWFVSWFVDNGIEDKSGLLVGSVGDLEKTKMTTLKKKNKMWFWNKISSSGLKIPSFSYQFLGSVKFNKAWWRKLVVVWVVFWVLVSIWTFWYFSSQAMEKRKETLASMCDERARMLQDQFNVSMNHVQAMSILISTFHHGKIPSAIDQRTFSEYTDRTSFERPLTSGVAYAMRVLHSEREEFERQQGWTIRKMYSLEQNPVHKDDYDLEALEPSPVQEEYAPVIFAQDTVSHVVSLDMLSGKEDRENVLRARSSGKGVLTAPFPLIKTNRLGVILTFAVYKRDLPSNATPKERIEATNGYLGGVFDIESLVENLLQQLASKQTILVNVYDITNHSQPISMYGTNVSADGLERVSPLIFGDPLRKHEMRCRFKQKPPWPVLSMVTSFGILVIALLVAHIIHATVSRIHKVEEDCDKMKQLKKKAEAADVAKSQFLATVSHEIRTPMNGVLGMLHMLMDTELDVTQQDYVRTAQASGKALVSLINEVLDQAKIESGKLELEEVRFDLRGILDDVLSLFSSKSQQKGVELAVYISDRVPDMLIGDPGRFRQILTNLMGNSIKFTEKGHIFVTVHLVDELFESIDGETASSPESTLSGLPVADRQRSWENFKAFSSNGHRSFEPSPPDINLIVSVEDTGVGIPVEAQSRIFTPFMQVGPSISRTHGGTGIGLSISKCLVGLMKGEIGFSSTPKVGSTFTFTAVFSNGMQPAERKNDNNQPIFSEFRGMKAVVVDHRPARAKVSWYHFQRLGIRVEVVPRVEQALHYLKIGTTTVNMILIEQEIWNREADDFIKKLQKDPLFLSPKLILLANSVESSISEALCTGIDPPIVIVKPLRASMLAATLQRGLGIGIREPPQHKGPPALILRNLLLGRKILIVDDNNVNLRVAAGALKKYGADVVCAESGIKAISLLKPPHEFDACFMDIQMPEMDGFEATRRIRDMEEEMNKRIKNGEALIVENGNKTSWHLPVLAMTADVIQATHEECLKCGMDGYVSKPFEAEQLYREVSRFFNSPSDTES
From the text: (§1) The activity of this enzyme is finally measured in the assay and corresponds to the ability of the tested compound to activate this cytokinin receptor. Both assays were done at least twice and the presented graphs are the most representative examples.

[3] = tested on: detached wheat leaves (ethylene production); assay: Ethylene accumulation assay; format: cell-based, Triticum aestivum; conditions: 10 μM, sealed vials; for ethylene production, fold of the control: days 3–6, dark; for ethylene production, fold of untreated leaves: first 3 days, dark
Method: Two detached leaf tips (final weight 50 mg) from 7-day-old wheat plants were incubated in 10 mL gas chromatography vials with either 1 mL of 0.1% DMSO (control), 10 μM ASES or 10 μM TDZ, and kept in the dark for 6 days at 25°C (1 day longer than the classical WLSA). On the third day, 1 mL of air from each vial was collected and the vials were then left open for 1 h and aerated with fresh air. Another 1 mL of air was collected from each vial on the sixth day. The amount of ethylene in each sample was determined using gas chromatography and the flame ionization detector method described by Fišerová et al. ([2001]).

[4] = tested on: young wheat plants under salt stress; assay: Salt stress experiment; format: in vivo, Triticum a. cv. Hereward; conditions: 100 nM, 75 mM NaCl
Method: A plastic container was filled with 45 g of perlite and 200 mL of Hoagland's solution (control) or with the addition of ASES to a final concentration of 100 nM. Sterilized seeds of Triticum a. cv. Hereward (6 g) were sown on the surface. Both treatments were done in two repetitions. The plants were left to grow in optimal conditions (22°C, 16/8, light/dark, 130 μM m^−2 s^−1, humidity 60%) for 7 days. During this period, most of the water evaporated and the containers were adjusted to the same weight by the addition of fresh distilled water. After this, all the containers contained 50 g (mL) of water. Then 100 mM NaCl solution was added in the final volume of 150 mL. Final concentration of the salt was 75 mM. The plants were then left to grow, analyzed visually and photographed at certain time-points.

CRE1/AHK4 = CRE1/AHK4 (Arabidopsis thaliana, UniProt Q9C5U0); assay: Cytokinin receptor activation assay in E. coli (CRE1/AHK4); format: cell-based; parameters: expressed in transfected cells; host or cells: Escherichia coli strain KMI001, plasmid pIN-IIIAHK4; conditions: E. coli bacterial receptor assay
CRE1/AHK4, sequence (Q9C5U0 whole entry): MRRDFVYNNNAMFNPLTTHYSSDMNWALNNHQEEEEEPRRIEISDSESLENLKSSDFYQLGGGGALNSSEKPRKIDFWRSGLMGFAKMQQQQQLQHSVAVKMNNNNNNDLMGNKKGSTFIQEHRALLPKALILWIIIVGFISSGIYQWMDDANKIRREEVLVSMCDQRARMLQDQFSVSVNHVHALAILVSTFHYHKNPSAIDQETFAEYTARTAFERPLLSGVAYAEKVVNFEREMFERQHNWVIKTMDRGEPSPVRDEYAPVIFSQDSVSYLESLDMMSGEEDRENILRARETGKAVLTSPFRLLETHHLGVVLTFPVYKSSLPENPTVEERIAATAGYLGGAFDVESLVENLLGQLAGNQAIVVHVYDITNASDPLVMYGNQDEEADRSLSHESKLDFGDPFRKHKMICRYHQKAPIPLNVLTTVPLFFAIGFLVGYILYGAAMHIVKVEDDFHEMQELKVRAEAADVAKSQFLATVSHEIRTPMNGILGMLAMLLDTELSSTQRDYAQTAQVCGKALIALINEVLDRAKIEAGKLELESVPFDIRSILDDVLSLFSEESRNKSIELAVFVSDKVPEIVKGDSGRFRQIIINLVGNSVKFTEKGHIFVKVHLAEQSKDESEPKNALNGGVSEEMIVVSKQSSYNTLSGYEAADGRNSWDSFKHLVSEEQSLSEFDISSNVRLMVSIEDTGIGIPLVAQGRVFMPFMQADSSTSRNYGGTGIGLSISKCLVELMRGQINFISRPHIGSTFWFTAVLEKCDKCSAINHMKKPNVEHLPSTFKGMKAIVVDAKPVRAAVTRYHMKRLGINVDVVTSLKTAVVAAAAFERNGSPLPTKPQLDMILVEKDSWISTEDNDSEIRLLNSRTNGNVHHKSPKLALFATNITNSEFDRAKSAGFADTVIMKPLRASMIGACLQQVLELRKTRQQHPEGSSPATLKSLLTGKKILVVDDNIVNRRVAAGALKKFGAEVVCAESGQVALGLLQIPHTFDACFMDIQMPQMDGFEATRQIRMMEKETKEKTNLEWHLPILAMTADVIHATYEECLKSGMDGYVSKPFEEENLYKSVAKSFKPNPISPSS
From the text: as §1

EC50 ([2]; half the maximal effective concentration, N.A. = not active, read-out: Tobacco callus bioassay (EC50)) [µM]	Tobacco callus bioassay (EC50, μM) ([2]; half the maximal effective concentration, N.A. = not active)	EC50 (AHK3; E. coli bacterial receptor assay, read-out: AHK3 receptor activation EC50) [nM]	SMILES	% of the chlorophyll retained [1]	% more of chlorophyll retained than DMSO (negative control) [1] [%]	times more effective than BA in Arabidopsis leaf senescence assay [1]	EC50 ([2]; read-out: Tobacco callus bioassay (EC50, μM)) [µM]	EC50 (AHK3) [nM]	ethylene production, fold of the control [3] [fold]	ethylene production, fold of untreated leaves [3] [fold]	cell division stimulatory effect, times lower than that of TDZ [2]	delay of senescence of the individual leaves compared to the untreated control [4] [days]	% of plants with dry and/or completely yellow at least one quarter of the first leaf ([4]; twenty days after planting, control 81%) [%]	ability to activate the CRE1/AHK4 receptor (CRE1/AHK4)
–	–	–	O=C(Nc1ccccc1)Nc1cnns1 [TDZ, 1-phenyl-3-(1,2,3-thiadiazol-5-yl)urea, reference compound]	more than 55%	85	approximately 100 times	0.001	105	2.18	2.02	–	–	–	–
0.68	sub-micromolar range	> 50000	COCCNC(=O)Nc1cnns1 [ASES, 1-(2-methoxy-ethyl)-3-1,2,3-thiadiazol-5-yl-urea]	more than 55%	96	approximately 100 times	–	–	1.22	1.36	more than 700 times	5 to 6	8	No other derivative from the series, including ASES, was able to activate
